Results reported in patent US10314923B2, “Silybin injection and preparation method therefor” (TASLY PHARMACEUTICAL GROUP CO., LTD., priority 2015, dated 2019).
Each block holds one molecule with its values, some of them ahead of it.

Columns and labels:
[1] = aqueous solution; cited from earlier work
[2] = Inclusion stability of silybin injections containing different types of cyclodextrin, standing at room temperature; format: physicochemical; settings: 50 g of cyclodextrin in 1000 ml of water for injection
Text: The types of cyclodextrin recorded in the Chinese patent application CN200410041364.0 include: β-cyclodextrin, hydroxypropyl-β-cyclodextrin, hydroxyethyl-β-cyclodextrin, methyl-β-cyclodextrin, glucosyl-β-cyclodextrin and sulfonyl-β-cyclodextrin. The cyclodextrin adopted in the present invention is sulfobutylether-β-cyclodextrin and is a specific inclusion material for the present invention. In contrast tests, silybin injections containing different types of cyclodextrin are respectively prepared by adopting the same formulation constituents, formulation dosage and preparation process. Standing is preformed at room temperature for one-week, and the inclusion stability of the injections is observed with the passage of time, that is, the time of medicine precipitation is regarded as a study index to screen the types of cyclodextrin.
Allow the injections to stand at room temperature for one week, and respectively observe the inclusion stability of the injections over time, i.e., study the influence of different types of cyclodextrins on the inclusion stability of silybin.

[3] = taken orally; Wu J W et al. 2007; cited from earlier work
[4] = Wang Hongchen 1983; cited from earlier work
[5] = Verification of preparation method of CN02125823.6: discoloration and UV scanning for destructiveness of NaOH to silybin; format: physicochemical; settings: scanned within the wavelength of 190-600 nm
Text: The Chinese patent application CN02125823.6 with the title “silymarin injection containing cyclodextrin or derivatives thereof” and the publication number of CN1391894A, according to the implementing scheme recorded in the Description, has the key technical features of adding silymarin into an aqueous solution containing cyclodextrin, regulating the pH of the solution to alkalinity using sodium hydroxide to dissolve silybin, and after dissolution, regulating the pH value to be 6.0 to 6.5 using hydrochloric acid to obtain a silymarin cyclodextrin inclusion compound. During verification, the silymarin is replaced with silybin, and the verification is strictly performed according to the implementing scheme described in embodiment 1 of the patent.
Dissolving 3 g of hydroxypropyl-β-cyclodextrin in 10 ml of water for injection, adding 300 mg of silybin, regulating the pH value to be 10 with 1N of NaOH solution, continuously stirring for 5 hours to dissolve the silybin, regulating the pH to be 6.5 with 1N of HCl solution, and performing filtration, bacterium removal, sub-packaging, freeze-drying and sealing, to obtain a silybin freeze-dried powder for injection.
However, for the preparation method of the present invention, the discoloration phenomenon is not found in the whole preparation process. […]

Compound: CNC[C@H](O)[C@@H](O)[C@H](O)[C@H](O)CO.COc1cc(C2Oc3ccc(C4Oc5cc(O)cc(O)c5C(=O)C4O)cc3OC2CO)ccc1O (centres unmarked) [silybin N-methylglucamine]
pH value [1]: about 11

dissolution of cyclodextrin in water [2]: cannot completely dissolve in water
Compound: OC[C@H]1O[C@@H]2O[C@H]3[C@H](O)[C@@H](O)[C@@H](O[C@H]4[C@H](O)[C@@H](O)[C@@H](O[C@H]5[C@H](O)[C@@H](O)[C@@H](O[C@H]6[C@H](O)[C@@H](O)[C@@H](O[C@H]7[C@H](O)[C@@H](O)[C@@H](O[C@H]8[C@H](O)[C@@H](O)[C@@H](O[C@H]1[C@H](O)[C@H]2O)O[C@@H]8CO)O[C@@H]7CO)O[C@@H]6CO)O[C@@H]5CO)O[C@@H]4CO)O[C@@H]3CO [β-cyclodextrin]

UV absorption peaks (verification of destructiveness caused by NaOH to silybin) [5]: 287.5 nm
Compound: COc1cc([C@@H]2Oc3cc([C@@H]4Oc5cc(O)cc(O)c5C(=O)[C@H]4O)ccc3O[C@H]2CO)ccc1O [silybin, Silybin]
absolute bioavailability [3]: 0.95%
water solubility and lipid solubility [4]: poor
